# Reference: EP1064002B9, “USE OF SPHINGOSIN-1-PHOSPHATE, SPHINGOSIN-1-PHOSPHATE DERIVATIVES AND/OR MIXTURES THEREOF FOR THE TREATMENT OF INFLAMMATORY DISEASES OF THE SKIN” (Dermapharm AG, priority 1998, dated 1999)
# How the values were obtained:
# Type in all cases: cell-based
# [1] = Fibroblast proliferation, non-stimulated cells in serum-free medium (DMEM without FKS); settings: human, fibroblasts, read-out: Konzentrationen mit ausgeprägter Toxizität an Fibroblasten
# Description: (§1) Das Wachstumsverhalten menschlicher. Fibroblasten in Gegenwart der Testsubstanzen wurde an nicht stimulierten Zellen verfolgt, die in serumfreiem Medium (nach Dulbecco modifiziertes Earle-Medium (DMEM) ohne fetales Kälber-Serum (FKS)) kultiviert wurden.
# Keratinozyten [2] = test: Keratinocyte proliferation in keratinocyte basal medium (KBM) without supplements
# Description: Die Versuche wurden auch in "keratinocyte basal medium" (KBM), ohne Supplemente), an kultivierten Keratinozyten durchgeführt. Damit konnte festgestellt werden, daß SPP bzw. […] DMS und C2C wirkten auch in diesem Medium toxisch.
# Keratinozyten [3] = test: Keratinocyte differentiation, transglutaminase activity
# Description: Nachdem gezeigt worden war, daß SPP die Proliferation von Keratinozyten hemmt, ohne daß damit eine vermehrte Toxizität verbunden ist, wurde der Differenzierungsgrad der Zellen nach Einwirkung der Sphingolipid-Derivate untersucht.
# Keratinozyten [4] = test: Keratinocyte proliferation in KGM, [3H]-thymidine incorporation into DNA; settings: 4-day treatment; for Proliferation von Keratinozyten ([^3H]-Thymidineinbau in die DNA): 1-10 µM
# Experimental: (§2) Die Proliferation von Keratinozyten wurde in Gegenwart von 1-10 µM von Sphingolipid-Derivaten untersucht. Nach 4-tägiger Behandlung mit verschiedenen Sphingolipiden wurde in der logarithmischen Wachstumsphase der Keratinozyten der [^3H]-Thymidineinbau in die DNA gemessen. […] Eine Proliferationshemmung tritt bereits bei einer Konzentration von 1 µM ein, 10 µM SPP reduzierten den Thymidineinbau um ca. 63,1 % (Abb. 1). […] Anhand des MTT-Tests wurde die Zellvitalität in Gegenwart von 1-25 µM SPP untersucht, bis 10 µM wirkten die Substanzen nicht toxisch. […] Dies zeigten mikroskopische Untersuchungen, der MTT-Test als auch durchflußzytometrische Untersuchungen zu Apoptose und Nekrose.
# Fibroblasten = test: Fibroblast proliferation, non-stimulated cells in serum-free medium (DMEM without FKS)
# Description: as §1
# [5] = Keratinocyte viability/toxicity: MTT test, microscopy, flow cytometry for apoptosis and necrosis; settings: keratinocytes; tested at 1-25 µM; read-out: Zellvitalität (MTT-Test): nicht toxisch bis
# Experimental: as §2
SMILES,MCC [1] [µM],Toxizität an Keratinozyten (Keratinozyten [2]),Differenzierung von Keratinozyten (Transglutaminase-Aktivität) (Keratinozyten [3]),Proliferation von Keratinozyten ([^3H]-Thymidineinbau in die DNA) (Keratinozyten [4]),antiproliferative effect compared with another substance (Keratinozyten [4]),Proliferation von Fibroblasten (Fibroblasten; concentration-dependent),mitogene Effekte an Keratinozyten (Keratinozyten [2]),Zunahme der Differenzierung von Keratinozyten compared with Calcitriol D3 (Keratinozyten [3]),other results
"CCCCCCCCCCCCC/C=C/[C@@H](O)[C@H](CO)N(C)C [DMS, Dimethylsphingosin]",≥ 5,toxisch,–,–,–,–,–,–,–
C=C1/C(=C\C=C2/CCC[C@]3(C)[C@@H]([C@H](C)CCCC(C)(C)O)CC[C@@H]23)C[C@@H](O)C[C@@H]1O [Calcitriol],–,–,ebenfalls eine Differenzierung fördert,–,–,–,–,–,–
"CCCCCCCCCCCCC/C=C/[C@@H](O)[C@@H](N)COP(=O)(O)O [SPP, Sphingosin-1-Phosphat]",–,–,die Differenzierung von Keratinozyten förderten,stark proliferationshemmend,ebenso potent wie Calcipotriol D3,konzentrationsabhängig stark' stimuliert,keine mitogenen Effekte,durchaus vergleichbar,"inhibition at 10 µM (Keratinozyten [4]; Keratinocyte, 96 h, 10 µM, logarithmic growth phase, read-out: reduzierten den Thymidineinbau um): ~63.1%; minimal effective concentration (Keratinozyten [4]; Keratinocyte, 96 h, read-out: Konzentration, bei der eine Proliferationshemmung bereits eintritt): 1 µM; Proliferation von Fibroblasten (Fibroblasten; 1 µM): wahrnehmbare Proliferationszunahme; fold induction at 10 µM (Fibroblasten; Fibroblast, 10 µM, read-out: höchste Aktivität (Proliferation von Fibroblasten)): ~6.5; MNTC [5]: ≤ 10 µM"
"CCCCCCCCCCCCC/C=C/[C@@H](O)[C@H](CO)NC(C)=O [C2C, C2-Ceramid]",≥ 5,toxisch,–,hemmten zwar ebenso den Thymidineinbau,–,–,–,–,Proliferation von Fibroblasten (Fibroblasten; low concentrations): sehr geringe proliferationsfördernde Wirkung
"CCCCCCCCCCCCC/C=C/[C@@H](O)[C@@H](N)CO [SPH, Sphingosin]",–,–,die Differenzierung von Keratinozyten förderten,wachstumshemmende Wirkung,schwächer ausgeprägt als bei SPP,konzentrationsabhängig stark' stimuliert,keine mitogenen Effekte,durchaus vergleichbar,Wirkstärke (Teilungsaktivität bei Fibroblasten) compared with SPP (Fibroblasten): niedriger als bei SPP; toxische Effekte an Fibroblasten (Fibroblasten; 10 µM): toxische Effekte
